{
  "source": "BigSolDB 2.1",
  "data": [
    {"smiles": "C[C@@H](Oc1ccc(Oc2nc3ccc(Cl)cc3o2)cc1)C(=O)N(C)c1ccccc1F", "values": [
      {"measurement": "solubility (mole fraction)", "setting": "in cyclohexane, 283.15 K", "result": 0.00449},
      {"measurement": "solubility (mole fraction)", "setting": "in cyclohexane, 288.15 K", "result": 0.00627},
      {"measurement": "solubility (mole fraction)", "setting": "in cyclohexane, 293.15 K", "result": 0.00814},
      {"measurement": "solubility (mole fraction)", "setting": "in cyclohexane, 298.15 K", "result": 0.0115},
      {"measurement": "solubility (mole fraction)", "setting": "in cyclohexane, 303.15 K", "result": 0.0146},
      {"measurement": "solubility (mole fraction)", "setting": "in cyclohexane, 308.15 K", "result": 0.0208},
      {"measurement": "solubility (mole fraction)", "setting": "in cyclohexane, 313.15 K", "result": 0.0287},
      {"measurement": "solubility (mole fraction)", "setting": "in isobutanol, 278.15 K", "result": 0.00347},
      {"measurement": "solubility (mole fraction)", "setting": "in isobutanol, 283.15 K", "result": 0.00487},
      {"measurement": "solubility (mole fraction)", "setting": "in isobutanol, 288.15 K", "result": 0.00676},
      {"measurement": "solubility (mole fraction)", "setting": "in isobutanol, 293.15 K", "result": 0.00921},
      {"measurement": "solubility (mole fraction)", "setting": "in isobutanol, 298.15 K", "result": 0.0126},
      {"measurement": "solubility (mole fraction)", "setting": "in isobutanol, 303.15 K", "result": 0.0169},
      {"measurement": "solubility (mole fraction)", "setting": "in isopentanol, 278.15 K", "result": 0.00526},
      {"measurement": "solubility (mole fraction)", "setting": "in isopentanol, 283.15 K", "result": 0.00724},
      {"measurement": "solubility (mole fraction)", "setting": "in isopentanol, 288.15 K", "result": 0.00977},
      {"measurement": "solubility (mole fraction)", "setting": "in isopentanol, 293.15 K", "result": 0.013},
      {"measurement": "solubility (mole fraction)", "setting": "in isopentanol, 298.15 K", "result": 0.0173},
      {"measurement": "solubility (mole fraction)", "setting": "in isopentanol, 303.15 K", "result": 0.0216},
      {"measurement": "solubility (mole fraction)", "setting": "in isopropanol, 278.15 K", "result": 0.00231},
      {"measurement": "solubility (mole fraction)", "setting": "in isopropanol, 283.15 K", "result": 0.00315},
      {"measurement": "solubility (mole fraction)", "setting": "in isopropanol, 288.15 K", "result": 0.00422},
      {"measurement": "solubility (mole fraction)", "setting": "in isopropanol, 293.15 K", "result": 0.00543},
      {"measurement": "solubility (mole fraction)", "setting": "in isopropanol, 298.15 K", "result": 0.00714},
      {"measurement": "solubility (mole fraction)", "setting": "in isopropanol, 303.15 K", "result": 0.00963},
      {"measurement": "solubility (mole fraction)", "setting": "in n-butanol, 278.15 K", "result": 0.00631},
      {"measurement": "solubility (mole fraction)", "setting": "in n-butanol, 283.15 K", "result": 0.00822},
      {"measurement": "solubility (mole fraction)", "setting": "in n-butanol, 288.15 K", "result": 0.0109},
      {"measurement": "solubility (mole fraction)", "setting": "in n-butanol, 293.15 K", "result": 0.0139},
      {"measurement": "solubility (mole fraction)", "setting": "in n-butanol, 298.15 K", "result": 0.0183},
      {"measurement": "solubility (mole fraction)", "setting": "in n-butanol, 303.15 K", "result": 0.0237},
      {"measurement": "solubility (mole fraction)", "setting": "in n-hexane, 278.15 K", "result": 0.000329},
      {"measurement": "solubility (mole fraction)", "setting": "in n-hexane, 283.15 K", "result": 0.000495},
      {"measurement": "solubility (mole fraction)", "setting": "in n-hexane, 288.15 K", "result": 0.000594},
      {"measurement": "solubility (mole fraction)", "setting": "in n-hexane, 293.15 K", "result": 0.000811},
      {"measurement": "solubility (mole fraction)", "setting": "in n-hexane, 298.15 K", "result": 0.00112},
      {"measurement": "solubility (mole fraction)", "setting": "in n-hexane, 303.15 K", "result": 0.00156},
      {"measurement": "solubility (mole fraction)", "setting": "in n-hexane, 308.15 K", "result": 0.00196},
      {"measurement": "solubility (mole fraction)", "setting": "in n-hexane, 313.15 K", "result": 0.00245},
      {"measurement": "solubility (mole fraction)", "setting": "in n-pentanol, 278.15 K", "result": 0.00739},
      {"measurement": "solubility (mole fraction)", "setting": "in n-pentanol, 283.15 K", "result": 0.00951},
      {"measurement": "solubility (mole fraction)", "setting": "in n-pentanol, 288.15 K", "result": 0.0123},
      {"measurement": "solubility (mole fraction)", "setting": "in n-pentanol, 293.15 K", "result": 0.015},
      {"measurement": "solubility (mole fraction)", "setting": "in n-pentanol, 298.15 K", "result": 0.0187},
      {"measurement": "solubility (mole fraction)", "setting": "in n-pentanol, 303.15 K", "result": 0.0228},
      {"measurement": "solubility (mole fraction)", "setting": "in n-propanol, 278.15 K", "result": 0.00476},
      {"measurement": "solubility (mole fraction)", "setting": "in n-propanol, 283.15 K", "result": 0.00646},
      {"measurement": "solubility (mole fraction)", "setting": "in n-propanol, 288.15 K", "result": 0.00876},
      {"measurement": "solubility (mole fraction)", "setting": "in n-propanol, 293.15 K", "result": 0.0115},
      {"measurement": "solubility (mole fraction)", "setting": "in n-propanol, 298.15 K", "result": 0.0155},
      {"measurement": "solubility (mole fraction)", "setting": "in n-propanol, 303.15 K", "result": 0.0209},
      {"measurement": "solubility (mole fraction)", "setting": "in sec-butanol, 278.15 K", "result": 0.00344},
      {"measurement": "solubility (mole fraction)", "setting": "in sec-butanol, 283.15 K", "result": 0.00491},
      {"measurement": "solubility (mole fraction)", "setting": "in sec-butanol, 288.15 K", "result": 0.00683},
      {"measurement": "solubility (mole fraction)", "setting": "in sec-butanol, 293.15 K", "result": 0.00919},
      {"measurement": "solubility (mole fraction)", "setting": "in sec-butanol, 298.15 K", "result": 0.0122},
      {"measurement": "solubility (mole fraction)", "setting": "in sec-butanol, 303.15 K", "result": 0.016}
    ]}
  ]
}
